In patent US20120135089A1, “E3 LIGASE INHIBITORS” (priority 2009, published 2012):
Where a name gives a salt, the structure may show the parent alone. Non-standard residues stand in square brackets, D forms with d. Residues, ends and D or L forms follow the SMILES beside them. *: point of attachment. Nle = CCCC[C@H](N)C(=O)O; Cbz = O=C(OCc1ccccc1)*

Assays:
MdmX = assay: etoposide-induced MdmX degradation in MCF7 cells (Western blot); format: cell-based, human; settings: etoposide 30 μg/ml, 16 hours
Method: (§1) Cells were plated in 384-well format and treated with MG132 (2 hours) or cycloheximide (30 minutes). Steadylite luminescence buffer (PerkinElmer) was added and the relative luminescence levels determined on a Victor3 Plate Reader. Each graph represents the median of 5 replicates normalized to a no treatment control, and one standard deviation is shown. […] The graphs and EC50 values were determined using Graphpad PRISM®. […] U2OS, RKO, and HCT116 cells (p53 wild-type) were incubated with 5 μg/ml (14 μM) of MEL23, 5 μg/ml (15 μM) of MEL24, or 10 μM of MG132 for 6 hours. Cells were lysed and analyzed by Western blotting using anti-Mdm2, anti-p53, and anti-eIF4E antibodies. NT indicates a no treatment control. […] MCF7 cells (p53 wild-type) were incubated with 30 μg/ml (51 μM) etoposide alone or in combination with 50 μM AlIn or 5 μg/ml (14 μM) MEL23, or 5 μg/ml (15 μM) MEL24 for 16 hours. Cells were lysed and analyzed by Western blotting using anti-MDMX and anti-actin antibodies.
(§2) Cells were seeded and treated with the indicated compound(s). Cells were lysed after each time point in a buffer of 50 mM TrisHCl pH 7.5, 200 mM NaCl, 0.5% NP-40, and 1 complete mini EDTA-free protease inhibitor cocktail tablet per 10 mL of buffer (Roche, Cat. No. 8360170). Protein content was quantified using a Biorad protein assay reagent (Bio-Rad Laboratories, Hercules, Calif., Cat. No. 500-0006). SDS sample buffer was added to the samples, and the mixture was boiled for 5 minutes. Equal amounts of protein were resolved on a 1D SDS-PAGE gel. Following separation proteins were transferred to nitrocellulose membrane, blocked with 5% milk, and then incubated with primary antibody overnight at 4° C. The membrane was incubated with secondary-HRP antibody for 45 minutes at room temperature and developed with SuperSignal West Pico Substrate (Pierce, Rockford, Ill., Cat. No. 34080).

[1] = molecular target: T1, Mdm2-luciferase fusion protein (Homo sapiens, UniProt Q00987); assay: cell-based Mdm2 auto-ubiquitination luminescence assay, Mdm2-luciferase cell line; settings: 384-well format
T1 construct: Using full-length Mdm2 allowed for the presence of all domains of Mdm2; expressed in transfected cells
Method: as §1
The Mdm2-luciferase cell line was seeded at 7,500 cells per well, in 384-well white plates (PerkinElmer, Waltham, Mass., Cat. No. 6007688), in 27 μl of media (DMEM with FBS and P/S). Assay plates with cells were incubated at 37° C. overnight to allow cells to adhere. After 24 hours, 2 μl from the ‘mother’ plate (4 mg/ml) was transferred to a ‘daughter plate’ containing 148 μl media in order to dilute the compound 1:75. Next, 3 μl from each well of the ‘daughter plates’ was added to triplicate assay plates for a final concentration of 5.33 μg/ml. Assay plates were incubated at 37° C. for 2 hours. Then the cells were lysed with the addition of 30 μl of luminescence buffer (PerkinElmer, Cat. No. 6016989), and the plates were incubated at room temperature for 30 minutes before being analyzed on a Victor3 Plate Reader (PerkinElmer) for luminescence. […] All repurchased compounds were tested in a 2-fold dilution series via the same protocol as the primary screening. All transfers were conducted using a BioMek (Beckman Coulter, Fullerton, Calif.). […] This was determined by comparing the negative control, no treatment, to the positive control, 10 μM MG132.
To identify Mdm2 E3 ligase inhibitors, a high-throughput cellular assay to measure changes in Mdm2 auto-ubiquitination and degradation was designed. This assay took advantage of the fact that Mdm2 can regulate itself in cells through ubiquitination and degradation (8). Two fusion proteins were constructed for the assay: (a) a wild-type Mdm2-luciferase fusion protein, which can auto-ubiquitinate and thereby target itself for degradation; and (b) a mutant Mdm2(C464A)-luciferase fusion protein. Both fusion proteins were constructed with luciferase N-terminal to Mdm2. The C464A mutation disrupts a metal binding site in the RING domain, thereby preventing Mdm2 E3 ligase activity (8). Small molecules that increase the luminescence of the Mdm2-luciferase fusion protein without increasing the luminescence of the Mdm2(C464A)-luciferase fusion protein are likely inhibiting Mdm2 E3 ligase activity or the proteasomal degradation of Mdm2. Alternatively, small molecules that increase the luminescence of both fusion proteins are likely affecting transcription, translation, or have a general cellular impact that is not dependent on the E3 ligase activity of Mdm2 or proteasomal degradation.

Mdm2 and p53 levels = assay: Western blot of Mdm2 and p53 protein levels in cell lines; format: cell-based, human; settings: 6 hours; for p53 levels in RKO and RKO-E6 cells: isogenic RKO and RKO-E6 (HPV-E6) cells
Method: as §1
(§3) H1229 cells were transfected with Mdm2-Flag or remained untransfected. Cells were treated with 5 μg/ml (14 μM) MEL23, 5 μg/ml (15 μM) MEL24, 10 μM MG132, or 1 μg/ml of doxorubicin for 6 hours. Cells were lysed and analyzed by Western blotting using anti-Mdm2 and anti-actin antibodies. The lower band indicated with a star seen with the Mdm2 antibody is a non-specific band. NT indicates a no treatment control. […] RKO and RK0-E6 cells were treated with 5 μg/ml (14 μM) MEL23, 5 μg/ml (15 μM) MEL24, 10 μM MG132, 0.5 μg/ml doxorubicin, 0.5 μg/ml camptothecin or 25 μg/ml Etoposide for 6 hours. Cells were lysed and analyzed by Western blotting using anti-Mdm2, anti-p53, and anti-actin antibodies. The lower band indicated with a star seen with the anti-Mdm2 antibody is a non-specific band. […] RKO cells were treated with 5 μg/ml (14 μM) MEL23, 5 μg/ml (15 μM) MEL24, 10 μM MG132 or 2 μg/ml doxorubicin for 6 hours. Cells were lysed and analyzed by Western blotting using anti-Mdm2, anti-p53, anti-phospho-Ser15 p53, and anti-eiF4E antibodies.
as §2
Cells were lysed and analyzed by Western blotting using anti-Mdm2, anti-p53, and anti-actin antibodies. The lower band seen with the Mdm2 antibody is a non-specific band. NT indicates no treatment control.
Referring now to FIG. 28e, endogenous Mdm2 and p53 protein levels with MEL17 treatment are shown. Briefly, U2OS, RKO, and HCT116 cells (p53 wild-type) were incubated with 5 μg/ml of MEL17 or 10 μM of MG132 for 6 hours. Cells were lysed and analyzed by Western blotting using anti-Mdm2, anti-p53, and anti-actin antibodies. The lower band seen with the Mdm2 antibody is a non-specific band.

p53 ubiquitination = assay: cell-based p53 ubiquitination assay in H1299 cells; parameters: species or system human; settings: H1299 transfected with p53, Mdm2, ubiquitin; 10 μg/ml pre-treatment, 10 μM MG132
Method: To obtain the results shown in FIG. 4A, Mdm2-luciferase cells were transfected with ubiquitin-HA and treated 8 hours later with 10 μg/ml (28 μM) MEL23, 10 μg/ml (31 μM) MEL24, or a DMSO control. After 16 hours, cells were additionally treated with 10 μM MG132 or a DMSO control. After 3 hours, cells were lysed and immunoprecipitated for 3 hours with anti-HA affinity matrix. Total lysates and immunoprecipitated samples were analyzed by Western blotting using anti-Mdm2 antibody. NT indicates a no treatment control. […] After 8 hours, cells were treated with 10 μg/ml (28 μM) MEL23, 10 μg/ml (31 μM) MEL24, or a DMSO control. After 16 hours, cells were additionally treated with 10 μM MG132 or a DMSO control. After 3 hours cells were lysed and analyzed by Western blotting using anti-p53 antibody. “p53-Ub” indicates the slower migrating species of the protein that are the ubiquitin-conjugated forms.
To test the effects of the MEL compounds on p53 ubiquitination, H1299 cells were transfected with plasmids expressing p53, Mdm2, and ubiquitin and pre-treated with 10 μg/ml MEL23 or MEL24, followed by treatment with 10 μM MG132. Ubiquitination of p53 was analyzed by Western blotting. […] In fact, the half-life of p53 increased from an hour to greater than 6 hours with 5 μg/ml MEL23 treatment (FIG. 32). Thus, treatment with MEL23 and MEL24 inhibits ubiquitin conjugation to Mdm2 and p53.

[2] = tested on: p53-Ser15 phosphorylation; assay: p53-Ser15 phosphorylation in RKO cells (Western blot); format: cell-based, human; settings: 6 hours
Method: as §3, §2

T1 sequence (Q00987 whole entry, the tested form may be a part): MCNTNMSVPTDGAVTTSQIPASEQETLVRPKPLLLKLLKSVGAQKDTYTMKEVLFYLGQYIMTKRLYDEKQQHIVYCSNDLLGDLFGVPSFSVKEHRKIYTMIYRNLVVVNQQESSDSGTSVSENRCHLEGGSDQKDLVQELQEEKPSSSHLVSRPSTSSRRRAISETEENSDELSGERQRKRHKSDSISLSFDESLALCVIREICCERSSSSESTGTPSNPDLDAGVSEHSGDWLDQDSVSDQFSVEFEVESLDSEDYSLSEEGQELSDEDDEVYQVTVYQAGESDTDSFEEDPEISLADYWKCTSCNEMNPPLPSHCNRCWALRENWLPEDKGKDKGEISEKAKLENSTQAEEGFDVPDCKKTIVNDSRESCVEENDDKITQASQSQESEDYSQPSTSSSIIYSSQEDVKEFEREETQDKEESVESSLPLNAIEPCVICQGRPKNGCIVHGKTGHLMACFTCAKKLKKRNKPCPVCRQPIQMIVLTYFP

| Structure (SMILES) | etoposide-induced MdmX degradation (MdmX) | luminescence of the Mdm2-luciferase cell line [1] | p53 levels in RKO and RKO-E6 cells (Mdm2 and p53 levels) | also measured |
| --- | --- | --- | --- | --- |
| CCCC[C@@H](C=O)NC(=O)[C@H](CC(C)C)NC(=O)[C@H](CC(C)C)NC(C)=O [ALLN, N-Acetyl-Leu-Leu-Nle-CHO, reference compound] (Ac-Leu-Leu-[Nle]-aldehyde) | degradation could be prevented |  |  |  |
| CC(C)C[C@@H](C=O)NC(=O)[C@H](CC(C)C)NC(=O)[C@H](CC(C)C)NC(=O)OCc1ccccc1 [MG132, Z-Leu-Leu-Leu-aldehyde, reference compound] (Cbz-Leu-Leu-Leu-aldehyde) |  | increased the levels of the Mdm2-luciferase protein | increased p53 in both cell lines | p53 ubiquitination in cells (p53 ubiquitination): significant increase in p53 ubiquitination |
| CC[C@@]1(O)C(=O)OCc2c1cc1n(c2=O)Cc2cc3ccccc3nc2-1 [camptothecin, reference compound] |  |  | increased p53 in both cell lines |  |
| C[C@@H]1C[C@@H]([C@H](O)CC2CC(=O)NC(=O)C2)C(=O)[C@@H](C)C1 [cycloheximide, reference compound] |  | selectively decreased the luminescence of the Mdm2-luciferase protein |  |  |
| COc1cccc2c1C(=O)c1c(O)c3c(c(O)c1C2=O)C[C@@](O)(C(=O)CO)C[C@@H]3O[C@H]1C[C@H](N)[C@H](O)[C@H](C)O1 [doxorubicin, doxorubicin hydrochloride, reference compound] |  |  | increased p53 in both cell lines | levels of endogenous and ectopically expressed Mdm2 (Mdm2 and p53 levels; p53-null H1299 cells): no effect on Mdm2 levels; phosphorylation of p53 at serine-15 [2]: strongly induced |
| COc1cc([C@@H]2c3cc4c(cc3[C@@H](O[C@@H]3O[C@@H]5CO[C@@H](C)O[C@H]5[C@H](O)[C@H]3O)[C@H]3COC(=O)[C@H]23)OCO4)cc(OC)c1O [etoposide, reference compound] | MdmX levels decreased substantially |  | increased p53 in both cell lines |  |
